Measurements published in the supplement of paper PMC10307832.

What was measured:
Experiment in all cases: relative viability (nuclei count vs DMSO), 5 days (fraction); higher = more cells survive
[1] = compound: CCN(CC)CCNC(=O)c1c(C)[nH]c(/C=C2\C(=O)Nc3ccc(F)cc32)c1C [Sunitinib] + C[C@]1(O)C[C@@H](c2nc(-c3ccc4ccc(-c5ccccc5)nc4c3)c3c(N)nccn32)C1 [Linsitinib] (partner 1 µM)
Method in brief: (§1)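 Medians of duplicate plates are given as relative viability. That measure is the nuclei count in treated wells divided by the count in vehicle wells. Counts were taken on 4× images of lung cancer cell lines in 1536-well plates, 5 days after pin-tool dosing the day after seeding with one drug alone or a fixed anchor-drug dose plus five library-drug doses (not always all listed) in √10 steps.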

[2] = compound: CCN(CC)CCNC(=O)c1c(C)[nH]c(/C=C2\C(=O)Nc3ccc(F)cc32)c1C [Sunitinib] + CS(=O)(=O)N1CCN(Cc2cc3nc(-c4cccc5[nH]ncc45)nc(N4CCOCC4)c3s2)CC1 [Pictilisib] (partner 1 µM)
Method in brief: as §1

[3] = compound: CCN(CC)CCNC(=O)c1c(C)[nH]c(/C=C2\C(=O)Nc3ccc(F)cc32)c1C [Sunitinib] + CS(=O)(=O)CCNCc1ccc(-c2ccc3ncnc(Nc4ccc(OCc5cccc(F)c5)c(Cl)c4)c3c2)o1 [Lapatinib] (partner 2 µM)
Method in brief: as §1

[4] = compound: CCN(CC)CCNC(=O)c1c(C)[nH]c(/C=C2\C(=O)Nc3ccc(F)cc32)c1C [Sunitinib] + CC(C)C[C@H](NC(=O)[C@H](Cc1ccccc1)NC(=O)c1cnccn1)B(O)O [Bortezomib] (partner 0.002 µM)
Method in brief: as §1

[5] = compound: CCN(CC)CCNC(=O)c1c(C)[nH]c(/C=C2\C(=O)Nc3ccc(F)cc32)c1C [Sunitinib] + C[C@@H](Oc1cc(-c2cnn(C3CCNCC3)c2)cnc1N)c1c(Cl)ccc(F)c1Cl [Crizotinib] (partner 1 µM)
Method in brief: as §1

[6] = compound: CCN(CC)CCNC(=O)c1c(C)[nH]c(/C=C2\C(=O)Nc3ccc(F)cc32)c1C [Sunitinib] + O=C(c1cc(Cc2n[nH]c(=O)c3ccccc23)ccc1F)N1CCN(C(=O)C2CC2)CC1 [Olaparib] (partner 8 µM)
Method in brief: as §1

[7] = compound: CCN(CC)CCNC(=O)c1c(C)[nH]c(/C=C2\C(=O)Nc3ccc(F)cc32)c1C [Sunitinib] + Cc1nc(NC(=O)N2CCC[C@H]2C(N)=O)sc1-c1ccnc(C(C)(C)C(F)(F)F)c1 [Alpelisib] (partner 2 µM)
Method in brief: as §1

[8] = compound: CCN(CC)CCNC(=O)c1c(C)[nH]c(/C=C2\C(=O)Nc3ccc(F)cc32)c1C [Sunitinib] + CC1(C)CCC(c2ccc(Cl)cc2)=C(CN2CCN(c3ccc(C(=O)NS(=O)(=O)c4ccc(N[C@H](CCN5CCOCC5)CSc5ccccc5)c(S(=O)(=O)C(F)(F)F)c4)cc3)CC2)C1 [Navitoclax] (partner 0.5 µM)
Method in brief: as §1

[9] = compound: CCN(CC)CCNC(=O)c1c(C)[nH]c(/C=C2\C(=O)Nc3ccc(F)cc32)c1C [Sunitinib] + COc1cc2c(Oc3ccc(NC(=O)C4(C(=O)Nc5ccc(F)cc5)CC4)cc3F)ccnc2cc1OCCCN1CCOCC1 [Foretinib] (partner 0.25 µM)
Method in brief: as §1

[10] = compound: CCN(CC)CCNC(=O)c1c(C)[nH]c(/C=C2\C(=O)Nc3ccc(F)cc32)c1C [Sunitinib]
Method in brief: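 Viability was read as treated-well nuclei divided by vehicle-well nuclei, using the median across plates. Lung cancer cell lines in 1536-well plates were kept overnight at 37 °C, pinned with five √10-spaced library-drug doses, and after 5 days were Hoechst-stained, imaged at 4× and counted in MetaXpress. Plates passed only with control CV below 25% and at least one doubling.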

EBC-1
relative viability ([1]; first compound 0.02 µM): 0.9
relative viability ([1]; first compound 0.06325 µM): 0.972
relative viability ([1]; first compound 0.2 µM): 1.01
relative viability ([1]; first compound 0.6325 µM): 0.993
relative viability ([1]; first compound 2 µM): 0.957
relative viability ([2]; first compound 0.02 µM): 0.41
relative viability ([2]; first compound 0.06325 µM): 0.377
relative viability ([2]; first compound 0.2 µM): 0.463
relative viability ([2]; first compound 0.6325 µM): 0.411
relative viability ([2]; first compound 2 µM): 0.46
relative viability ([3]; first compound 0.02 µM): 0.227
relative viability ([3]; first compound 0.06325 µM): 0.198
relative viability ([3]; first compound 0.2 µM): 0.224
relative viability ([3]; first compound 0.6325 µM): 0.215
relative viability ([3]; first compound 2 µM): 0.202
relative viability ([4]; first compound 0.02 µM): 0.475
relative viability ([4]; first compound 0.06325 µM): 0.573
relative viability ([4]; first compound 0.2 µM): 0.65
relative viability ([4]; first compound 0.6325 µM): 0.532
relative viability ([4]; first compound 2 µM): 0.534
relative viability ([5]; first compound 0.02 µM): 0.171
relative viability ([5]; first compound 0.06325 µM): 0.178
relative viability ([5]; first compound 0.2 µM): 0.216
relative viability ([5]; first compound 0.6325 µM): 0.183
relative viability ([5]; first compound 2 µM): 0.19
relative viability ([6]; first compound 0.02 µM): 0.758
relative viability ([6]; first compound 0.06325 µM): 0.689
relative viability ([6]; first compound 0.2 µM): 0.727
relative viability ([6]; first compound 0.6325 µM): 0.726
relative viability ([6]; first compound 2 µM): 0.739
relative viability ([7]; first compound 0.02 µM): 0.857
relative viability ([7]; first compound 0.06325 µM): 0.971
relative viability ([7]; first compound 0.2 µM): 0.871
relative viability ([7]; first compound 0.6325 µM): 0.87
relative viability ([7]; first compound 2 µM): 1
relative viability ([8]; first compound 0.02 µM): 0.467
relative viability ([8]; first compound 0.06325 µM): 0.472
relative viability ([8]; first compound 0.2 µM): 0.417
relative viability ([8]; first compound 0.6325 µM): 0.557
relative viability ([8]; first compound 2 µM): 0.626
relative viability ([9]; first compound 0.02 µM): 0.101
relative viability ([9]; first compound 0.06325 µM): 0.112
relative viability ([9]; first compound 0.2 µM): 0.0979
relative viability ([9]; first compound 0.6325 µM): 0.112
relative viability ([9]; first compound 2 µM): 0.119
relative viability ([10]; 0.02 µM): 0.965
relative viability ([10]; 0.2 µM): 1.12
relative viability ([10]; 0.6325 µM): 1.09
relative viability ([10]; 2 µM): 1.01
